From paper PMC12622451, “NADPH Oxidase Inhibition Promotes Brain Resilience by Attenuating Tauopathy and Neuroinflammation in Alzheimer's Disease” (Advanced Science, 2025)

What was measured:
human Nox4 [1] = target: T1, human Nox4 (Homo sapiens, UniProt Q9NPH5); assay: ROS chemiluminescence with Drosophila membranes expressing human Nox4; assay type: biochemical
T1 sequence (Q9NPH5 1-578): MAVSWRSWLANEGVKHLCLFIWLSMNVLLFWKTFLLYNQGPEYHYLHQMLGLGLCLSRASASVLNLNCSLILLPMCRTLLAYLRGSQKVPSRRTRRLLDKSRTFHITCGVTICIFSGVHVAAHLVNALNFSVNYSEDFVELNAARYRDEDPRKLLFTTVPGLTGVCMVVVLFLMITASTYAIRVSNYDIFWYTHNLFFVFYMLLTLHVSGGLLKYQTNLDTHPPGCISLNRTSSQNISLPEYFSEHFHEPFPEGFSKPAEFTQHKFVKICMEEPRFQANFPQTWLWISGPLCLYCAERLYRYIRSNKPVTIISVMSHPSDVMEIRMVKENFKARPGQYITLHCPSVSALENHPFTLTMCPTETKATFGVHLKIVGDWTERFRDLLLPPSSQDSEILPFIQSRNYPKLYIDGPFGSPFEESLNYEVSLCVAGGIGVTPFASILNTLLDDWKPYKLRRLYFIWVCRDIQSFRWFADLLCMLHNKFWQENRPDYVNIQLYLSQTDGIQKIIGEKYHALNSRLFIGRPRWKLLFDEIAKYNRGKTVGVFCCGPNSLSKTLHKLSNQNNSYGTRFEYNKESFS

human Duox2 = human Duox2 (Homo sapiens, UniProt Q9NRD8); assay: ROS chemiluminescence with Drosophila membranes expressing human Duox2; assay type: biochemical
human Duox1 = human Duox1 (Homo sapiens, UniProt Q9NRD9); assay: ROS chemiluminescence with Drosophila membranes expressing human Duox1; assay type: biochemical
human Nox1 [2] = target: T2, human Nox1 (Homo sapiens, UniProt Q9Y5S8); assay: ROS chemiluminescence with Drosophila membranes expressing human Nox1; assay type: biochemical
T2 sequence (Q9Y5S8 1-564): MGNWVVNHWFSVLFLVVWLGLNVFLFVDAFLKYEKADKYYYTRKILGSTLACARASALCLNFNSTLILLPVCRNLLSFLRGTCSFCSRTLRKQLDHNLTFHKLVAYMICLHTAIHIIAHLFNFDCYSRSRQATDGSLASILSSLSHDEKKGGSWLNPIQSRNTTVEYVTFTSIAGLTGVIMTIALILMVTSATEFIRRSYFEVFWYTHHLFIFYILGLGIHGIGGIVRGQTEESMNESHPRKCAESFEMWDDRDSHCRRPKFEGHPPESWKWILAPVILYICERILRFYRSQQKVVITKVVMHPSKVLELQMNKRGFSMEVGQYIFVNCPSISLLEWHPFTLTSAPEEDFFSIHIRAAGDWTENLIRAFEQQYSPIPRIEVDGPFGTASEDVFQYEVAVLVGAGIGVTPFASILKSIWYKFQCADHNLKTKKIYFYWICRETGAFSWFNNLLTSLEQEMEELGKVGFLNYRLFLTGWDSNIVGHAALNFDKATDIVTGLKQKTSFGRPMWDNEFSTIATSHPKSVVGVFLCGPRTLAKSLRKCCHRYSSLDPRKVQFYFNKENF

human Nox2 [3] = target: T3, human Nox2 (Homo sapiens, UniProt P04839); assay: ROS chemiluminescence with Drosophila membranes expressing human Nox2; assay type: biochemical
T3 construct: gene CYBB
T3 sequence (P04839 2-570): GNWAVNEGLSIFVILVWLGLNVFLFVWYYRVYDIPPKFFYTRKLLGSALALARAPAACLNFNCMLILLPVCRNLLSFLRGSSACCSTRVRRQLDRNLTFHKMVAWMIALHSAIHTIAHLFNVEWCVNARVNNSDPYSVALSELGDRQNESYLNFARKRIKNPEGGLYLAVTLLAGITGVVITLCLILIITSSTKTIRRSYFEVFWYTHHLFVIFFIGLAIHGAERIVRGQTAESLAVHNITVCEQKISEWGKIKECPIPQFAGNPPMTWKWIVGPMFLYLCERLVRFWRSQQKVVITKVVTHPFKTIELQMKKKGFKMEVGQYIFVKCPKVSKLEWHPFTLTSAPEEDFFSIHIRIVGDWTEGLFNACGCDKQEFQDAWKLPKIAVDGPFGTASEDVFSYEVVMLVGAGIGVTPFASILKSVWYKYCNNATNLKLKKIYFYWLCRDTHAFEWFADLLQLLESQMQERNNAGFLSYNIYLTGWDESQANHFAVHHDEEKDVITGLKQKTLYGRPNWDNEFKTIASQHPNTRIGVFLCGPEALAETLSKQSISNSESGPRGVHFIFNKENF

human Nox5 = target: T4, human Nox5 (Homo sapiens, UniProt Q96PH1); assay: ROS chemiluminescence with Drosophila membranes expressing human Nox5; assay type: biochemical
T4 sequence (Q96PH1 1-765): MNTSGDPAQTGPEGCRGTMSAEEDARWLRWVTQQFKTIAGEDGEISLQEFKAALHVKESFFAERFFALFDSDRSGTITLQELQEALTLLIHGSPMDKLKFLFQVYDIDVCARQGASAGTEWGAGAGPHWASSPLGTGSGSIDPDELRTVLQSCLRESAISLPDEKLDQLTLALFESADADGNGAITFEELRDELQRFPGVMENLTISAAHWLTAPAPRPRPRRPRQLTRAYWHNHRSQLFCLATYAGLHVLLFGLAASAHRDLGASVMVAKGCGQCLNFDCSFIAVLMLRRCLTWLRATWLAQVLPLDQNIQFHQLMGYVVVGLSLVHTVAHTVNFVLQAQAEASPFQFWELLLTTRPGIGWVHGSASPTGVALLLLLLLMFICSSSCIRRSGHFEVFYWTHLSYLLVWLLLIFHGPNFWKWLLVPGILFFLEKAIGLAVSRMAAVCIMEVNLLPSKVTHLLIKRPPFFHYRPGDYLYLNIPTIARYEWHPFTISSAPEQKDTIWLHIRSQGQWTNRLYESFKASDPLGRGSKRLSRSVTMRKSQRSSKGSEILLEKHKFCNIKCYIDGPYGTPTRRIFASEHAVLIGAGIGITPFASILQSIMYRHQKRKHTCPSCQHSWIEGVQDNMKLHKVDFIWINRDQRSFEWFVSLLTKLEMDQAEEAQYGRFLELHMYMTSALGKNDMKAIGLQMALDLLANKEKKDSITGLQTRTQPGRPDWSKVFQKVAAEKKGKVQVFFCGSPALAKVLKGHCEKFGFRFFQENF

human Nox4 [4] = target: T1, human Nox4; assay: lucigenin chemiluminescence with Drosophila membranes expressing human Nox4; assay type: cell-based
human Nox2 [5] = target: T3, human Nox2; assay: lucigenin chemiluminescence with Drosophila membranes expressing human Nox2; assay type: cell-based
human Nox1 [6] = target: T2, human Nox1

Chain of human Duox2 (Q9NRD8 26-1548): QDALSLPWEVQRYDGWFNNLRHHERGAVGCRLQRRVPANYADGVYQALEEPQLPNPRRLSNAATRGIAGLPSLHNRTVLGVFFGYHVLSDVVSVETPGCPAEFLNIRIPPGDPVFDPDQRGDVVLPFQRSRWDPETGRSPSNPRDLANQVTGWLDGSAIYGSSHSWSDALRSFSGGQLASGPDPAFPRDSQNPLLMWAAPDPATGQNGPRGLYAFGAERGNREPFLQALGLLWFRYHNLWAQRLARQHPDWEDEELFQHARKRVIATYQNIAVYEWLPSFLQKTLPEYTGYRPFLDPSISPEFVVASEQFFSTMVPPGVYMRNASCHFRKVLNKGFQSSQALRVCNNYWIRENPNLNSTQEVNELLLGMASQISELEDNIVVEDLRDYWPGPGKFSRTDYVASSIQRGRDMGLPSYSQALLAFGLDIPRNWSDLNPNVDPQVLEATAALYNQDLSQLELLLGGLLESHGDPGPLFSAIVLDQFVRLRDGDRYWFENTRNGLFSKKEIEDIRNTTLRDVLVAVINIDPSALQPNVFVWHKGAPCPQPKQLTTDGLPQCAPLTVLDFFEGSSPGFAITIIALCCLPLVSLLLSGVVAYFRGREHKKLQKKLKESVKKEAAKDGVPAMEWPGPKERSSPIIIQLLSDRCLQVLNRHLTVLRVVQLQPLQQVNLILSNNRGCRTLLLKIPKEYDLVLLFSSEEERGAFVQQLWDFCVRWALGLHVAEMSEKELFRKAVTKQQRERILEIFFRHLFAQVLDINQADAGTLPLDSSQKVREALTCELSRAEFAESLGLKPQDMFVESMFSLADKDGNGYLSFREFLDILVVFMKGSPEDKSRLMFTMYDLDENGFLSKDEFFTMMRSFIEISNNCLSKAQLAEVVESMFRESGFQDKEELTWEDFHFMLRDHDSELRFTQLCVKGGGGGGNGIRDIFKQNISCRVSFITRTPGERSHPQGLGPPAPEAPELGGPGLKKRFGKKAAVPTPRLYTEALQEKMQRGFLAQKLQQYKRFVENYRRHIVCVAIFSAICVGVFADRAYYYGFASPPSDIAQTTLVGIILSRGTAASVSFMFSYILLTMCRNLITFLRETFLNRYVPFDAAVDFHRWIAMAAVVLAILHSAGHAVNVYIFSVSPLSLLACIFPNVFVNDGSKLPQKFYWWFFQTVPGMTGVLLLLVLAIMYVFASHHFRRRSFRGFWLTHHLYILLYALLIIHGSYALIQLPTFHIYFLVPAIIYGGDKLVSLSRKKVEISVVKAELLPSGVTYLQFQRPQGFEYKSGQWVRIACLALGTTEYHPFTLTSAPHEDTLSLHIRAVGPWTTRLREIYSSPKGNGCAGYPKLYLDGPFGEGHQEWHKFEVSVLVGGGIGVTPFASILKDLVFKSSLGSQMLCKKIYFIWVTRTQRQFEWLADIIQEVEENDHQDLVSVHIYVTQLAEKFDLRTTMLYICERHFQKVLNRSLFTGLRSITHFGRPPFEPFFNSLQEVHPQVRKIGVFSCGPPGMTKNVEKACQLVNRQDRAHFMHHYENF
Chain of human Duox1 (Q9NRD9 22-1551): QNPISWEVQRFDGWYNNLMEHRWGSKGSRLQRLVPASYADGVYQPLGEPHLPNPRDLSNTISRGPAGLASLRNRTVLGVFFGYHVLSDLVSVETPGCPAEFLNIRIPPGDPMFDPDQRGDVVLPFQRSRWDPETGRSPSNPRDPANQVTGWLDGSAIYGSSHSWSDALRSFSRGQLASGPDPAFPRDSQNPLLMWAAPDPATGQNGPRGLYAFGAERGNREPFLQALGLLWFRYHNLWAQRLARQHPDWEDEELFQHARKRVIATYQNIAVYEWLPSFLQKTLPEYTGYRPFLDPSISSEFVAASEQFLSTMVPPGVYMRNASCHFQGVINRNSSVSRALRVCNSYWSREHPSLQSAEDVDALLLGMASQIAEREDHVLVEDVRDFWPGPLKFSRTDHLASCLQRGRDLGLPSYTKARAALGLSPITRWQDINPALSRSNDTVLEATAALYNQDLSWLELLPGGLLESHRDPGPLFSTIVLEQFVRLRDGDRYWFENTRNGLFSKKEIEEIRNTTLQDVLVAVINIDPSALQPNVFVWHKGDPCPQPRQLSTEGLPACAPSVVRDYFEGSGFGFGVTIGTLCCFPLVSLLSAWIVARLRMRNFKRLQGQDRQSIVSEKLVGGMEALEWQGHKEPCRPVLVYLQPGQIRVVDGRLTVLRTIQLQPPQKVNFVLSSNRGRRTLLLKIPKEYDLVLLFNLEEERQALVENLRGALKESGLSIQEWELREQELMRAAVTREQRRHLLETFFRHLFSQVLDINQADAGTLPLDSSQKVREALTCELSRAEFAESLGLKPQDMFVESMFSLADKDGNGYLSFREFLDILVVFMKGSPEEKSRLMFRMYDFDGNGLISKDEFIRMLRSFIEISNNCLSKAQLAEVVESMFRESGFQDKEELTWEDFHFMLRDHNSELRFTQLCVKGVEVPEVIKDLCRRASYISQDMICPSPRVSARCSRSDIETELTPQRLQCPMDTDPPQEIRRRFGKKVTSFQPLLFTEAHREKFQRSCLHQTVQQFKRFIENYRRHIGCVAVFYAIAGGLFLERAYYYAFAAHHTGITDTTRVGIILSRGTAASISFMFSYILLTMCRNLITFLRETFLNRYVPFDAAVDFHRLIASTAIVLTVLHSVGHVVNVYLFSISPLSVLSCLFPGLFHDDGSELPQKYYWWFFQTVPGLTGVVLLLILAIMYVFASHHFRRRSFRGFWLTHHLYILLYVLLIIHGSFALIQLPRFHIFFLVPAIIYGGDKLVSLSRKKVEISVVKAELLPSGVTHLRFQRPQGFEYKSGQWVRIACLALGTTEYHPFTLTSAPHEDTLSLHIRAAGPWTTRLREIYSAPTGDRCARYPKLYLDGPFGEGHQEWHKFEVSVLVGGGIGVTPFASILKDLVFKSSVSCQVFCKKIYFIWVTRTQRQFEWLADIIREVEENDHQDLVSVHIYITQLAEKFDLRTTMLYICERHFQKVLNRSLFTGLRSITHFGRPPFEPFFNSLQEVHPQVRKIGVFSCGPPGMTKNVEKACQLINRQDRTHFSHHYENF

Structure (SMILES)	IC50 (human Nox4 [1]) [µM]	IC50 (human Duox2) [µM]	IC50 (human Duox1) [µM]	IC50 (human Nox1 [2]) [µM]	IC50 (human Nox2 [3]) [µM]	IC50 (human Nox5) [µM]	lucigenin chemiluminescence with Drosophila membranes expressing human Nox4 (human Nox4 [4])	lucigenin chemiluminescence with Drosophila membranes expressing human Nox2 (human Nox2 [5])	lucigenin chemiluminescence with Drosophila membranes expressing human Nox1 (human Nox1 [6])
O=C(Nc1nnc(-c2ccccc2)o1)c1ccc(F)c(C(F)(F)F)c1 [CRB-2131, 4‐fluoro‐N‐(5‐phenyl‐1,3,4‐oxadiazol‐2‐yl)‐3‐(trifluoromethyl) benzamide]	0.2 to 0.3	0.2 to 0.3	0.2 to 0.3	0.2 to 0.3	0.2 to 0.3	0.2 to 0.3	–	–	–
c1ccc2c(c1)[I+]c1ccccc1-2 [DPI, Diphenyleneiodonium chloride]	–	–	–	–	–	–	DPI exhibited low Nox inhibitory activity, while GSK2795039 showed very minimal inhibition	DPI exhibited low Nox inhibitory activity, while GSK2795039 showed very minimal inhibition	DPI exhibited low Nox inhibitory activity, while GSK2795039 showed very minimal inhibition
